The nature of data set [1]: In vivo tests - dogs, oral suspension, serum levels by LC/MS/MS. The following applies: dog, 3 male beagle dogs, fasted, oral gavage of OPC suspension, 3 mgA/kg. As for the experimental part:
Samples were dosed orally as suspensions to 3 male beagle dogs in the fasted state. Oral powders for constitution (OPC) were prepared by adding 150 mg of crystalline Compound A to 50 mL water containing 0.5 wt % Methylcellulose A, or 600 mg of the dispersion of Example 1 to 50 mL water containing 0.5 wt % Methylcellulose A and 0.1 wt % Tween 80. Dogs were fasted overnight, and allowed ad libidum access to water. On the morning of the study, approximately 10 mL of OPC solution (3 mgA/kg) was administered via oral gavage with 10 mL normal saline flush.
Whole-blood samples (3-mL red-top Vacutainer tubes without serum separators) were taken from the jugular vein before dosing and at 0.25, 0.5, 1, 2, 4, 6, 8, and 24 hours after dosing. Serum was harvested into cryovials after centrifugation at 3000 rpm for 10 minutes. The samples were frozen and then kept at −20° C. until they were analyzed by liquid chromatography with tandem mass spectrometry (LC/MS/MS).

A short description of data set [2]: In vitro microcentrifuge dissolution test. Type of data set: physicochemical. Conditions: PBS pH 6.5, 290 mOsm/kg, 7.3 mM sodium taurocholic acid, 1.4 mM 1-palmitoyl-2-oleyl-sn-glycero-3-phosphocholine, 37° C.; 200 μgA/mL if all dissolved. How it is done: An in vitro dissolution test was used to determine the dissolution performance of the solid amorphous dispersion of Example 89. For this test, a sufficient amount of material was added to a microcentrifuge test tube so that the concentration of Compound A would have been 200 μgA/mL, if all of the compound had dissolved. The test was run in duplicate. The tubes were placed in a 37° C. temperature-controlled chamber, and 1.8 mL PBS at pH 6.5 and 290 mOsm/kg, containing 7.3 mM sodium taurocholic acid and 1.4 mM of 1-palmitoyl-2-oleyl-sn-glycero-3-phosphocholine, was added to each respective tube. The samples were quickly mixed using a vortex mixer for about 60 seconds. The samples were centrifuged at 13,000 G at 37° C. for 1 minute. The resulting supernatant solution was then sampled and diluted 1:5 (by volume) with methanol and analyzed by high-performance liquid chromatography (HPLC). HPLC analysis was performed using a Zorbax RX-C18 column. The mobile phase consisted of 30/70 0.15% trifluoroacetic acid/acetonitrile, with a flow rate of 1.0 mL/min. UV absorbance was measured at 254 nm. The contents of each tube were mixed on the vortex mixer and allowed to stand undisturbed at 37° C. until the next sample was taken. Samples were collected at 4, 10, 20, 40, 90, and 1200 minutes. […]

Each structure is given as a SMILES string.

As to `CC[C@@H]1C[C@H](N(Cc2cc(C(F)(F)F)cc(C(F)(F)F)c2)c2nnn(C)n2)c2cc(C(F)(F)F)ccc2N1C(=O)[C@H]1CC[C@H](CC(N)=O)CC1` [Crystalline Compound A, Trans-(2R,4S)-2-(4-{4-[(3,5-Bis-trifluoromethyl-benzyl)-(2-methyl-2H-tetrazol-5-yl)-amino]-2-ethyl-6-trifluoromethyl-3,4-dihydro-2H-quinoline-1-carbonyl}-cyclohexyl)-acetamide], in data set [1], the AUC(0-inf) came to 2690 ng·h/mL and the Cmax was determined as 186 ng/mL. Also, in data set [2], the “AUC90 (area under the concentration-versus-time curve during the initial ninety minutes)” value came to 800 min * μgA/mL and the “MDC90 (maximum dissolved concentration of Compound A during the initial ninety minutes)” value came out at 13 μgA/mL.

As a reminder, the AUC(0-inf) is the area under the concentration-time curve extrapolated to infinity. Low readings indicate low exposure, high ones high exposure. A word on the Cmax: it is the highest concentration seen after dosing.
